From patent publication US11780845B2 (Relay Therapeutics, Inc., priority 2019, dated 2023)
pIC50: −log10 of the molar value.

Biological target: FGFR2 (Homo sapiens (Human), UniProt P21802)
Assay: FGFR2 Biochemical Caliper Assay
Description: Compounds of the present invention were also tested in a FGFR2 Biochemical Caliper Assay. Compounds were prepared in 10 mM DMSO solution and serially diluted into 11 concentrations by 3-fold dilution. […] 5 uL of ATP solution (100 uM) was added to start the reaction and the plate was incubated for 90 minutes, then 70 uL of stopping buffer (0.5M EDTA) was added to terminate the reaction. Each well was analyzed using EZ reader.

Chain of FGFR2 (P21802 22-821): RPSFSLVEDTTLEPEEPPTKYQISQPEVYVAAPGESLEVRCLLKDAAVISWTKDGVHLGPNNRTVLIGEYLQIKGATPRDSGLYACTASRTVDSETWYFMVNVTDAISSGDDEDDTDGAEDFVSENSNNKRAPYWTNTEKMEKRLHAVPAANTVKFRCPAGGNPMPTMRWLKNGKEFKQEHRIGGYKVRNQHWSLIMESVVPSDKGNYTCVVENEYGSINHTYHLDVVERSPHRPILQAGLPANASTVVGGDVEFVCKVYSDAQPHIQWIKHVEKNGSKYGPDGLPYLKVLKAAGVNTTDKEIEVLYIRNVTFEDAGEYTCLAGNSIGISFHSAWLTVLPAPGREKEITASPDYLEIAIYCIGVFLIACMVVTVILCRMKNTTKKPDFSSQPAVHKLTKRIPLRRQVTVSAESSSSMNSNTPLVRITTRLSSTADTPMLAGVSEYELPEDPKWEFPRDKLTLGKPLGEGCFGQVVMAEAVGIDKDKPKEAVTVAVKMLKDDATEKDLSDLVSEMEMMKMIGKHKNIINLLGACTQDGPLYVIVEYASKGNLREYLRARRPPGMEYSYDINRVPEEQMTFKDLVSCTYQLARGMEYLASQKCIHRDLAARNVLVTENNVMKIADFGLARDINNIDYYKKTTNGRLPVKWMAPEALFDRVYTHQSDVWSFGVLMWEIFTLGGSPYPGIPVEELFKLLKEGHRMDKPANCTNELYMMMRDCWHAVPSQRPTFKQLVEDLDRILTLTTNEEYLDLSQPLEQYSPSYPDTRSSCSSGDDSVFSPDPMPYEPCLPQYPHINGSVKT

pIC50	SMILES
4.00 to 6.00	C=C(C)C(=O)Nc1ccc(-c2c(-c3ccc(CC(=O)N(C)C)c(F)c3)c3c(N)ncnc3n2C)cc1 [Example 173]
> 7.00	C=C(C)C(=O)Nc1ccc(-c2c(-c3ccc4c(c3)OCCN4C)c3c(N)ncnc3n2C)cc1 [Example 175]
4.00 to 6.00	C=C(C)C(=O)Nc1ccc(-c2c(-c3ccc(N)c(OC(F)(F)F)c3)c3c(N)ncnc3n2C)cc1 [Example 177]
6.00 to 6.60	C=C(C)C(=O)Nc1ccc(-c2c(-c3ccc(-c4nccs4)cc3)c3c(N)ncnc3n2C)cc1 [Example 178]
4.00 to 6.00	C=C(C)C(=O)Nc1ccc(-c2c(-c3cnn(Cc4ccncc4)c3)c3c(N)ncnc3n2C)cc1 [Example 179]
4.00 to 6.00	C=C(C)C(=O)Nc1ccc(-c2c(-c3ccc(S(C)(=O)=O)cc3C)c3c(N)ncnc3n2C)cc1 [Example 181]
4.00 to 6.00	C=C(C)C(=O)Nc1ccc(-c2c(-c3ccc(=O)n(Cc4ccccc4)c3)c3c(N)ncnc3n2C)cc1 [Example 182]
4.00 to 6.00	C=C(C)C(=O)Nc1ccc(-c2c(-c3cccc(C(=O)N4CCCC4)c3)c3c(N)ncnc3n2C)cc1 [Example 183]
4.00 to 6.00	C=C(C)C(=O)Nc1ccc(-c2c(-c3ccc(-n4cncn4)nc3)c3c(N)ncnc3n2C)cc1 [Example 184]
4.00 to 6.00	C=C(C)C(=O)Nc1ccc(-c2c(-c3ccc4[nH]c(C(=O)O)cc4c3)c3c(N)ncnc3n2C)cc1 [Example 185]
4.00 to 6.00	C=C(C)C(=O)Nc1ccc(-c2c(-c3ccc(OC4CCN(C)CC4)nc3)c3c(N)ncnc3n2C)cc1 [Example 187]
4.00 to 6.00	C=C(C)C(=O)Nc1ccc(-c2c(-c3ccc4c(c3)CCC4C(=O)N(C)C)c3c(N)ncnc3n2C)cc1 (stereo not drawn) [Example 191]
4.00 to 6.00	C=C(C)C(=O)Nc1ccc(-c2c(-c3ccc(-n4cccn4)nc3)c3c(N)ncnc3n2C)cc1 [Example 192]
4.00 to 6.00	C=C(C)C(=O)Nc1ccc(-c2c(-c3ccc4c(c3)CS(=O)(=O)C4)c3c(N)ncnc3n2C)cc1 [Example 193]
4.00 to 6.00	C=C(C)C(=O)Nc1ccc(-c2c(-c3ccc(OCC)c(OCC)c3)c3c(N)ncnc3n2C)cc1 [Example 196]
4.00 to 6.00	C=C(C)C(=O)Nc1ccc(-c2c(-c3ccc(CN(C)C(C)=O)cc3)c3c(N)ncnc3n2C)cc1 [Example 198]
4.00 to 6.00	C=C(C)C(=O)Nc1ccc(-c2c(-c3cc(O)c(Oc4ncccn4)c(CC)c3)c3c(N)ncnc3n2C)cc1 [Example 200]
4.00 to 6.00	C=C(C)C(=O)Nc1ccc(-c2c(-c3ccc4[nH]c(=O)n(C)c4c3)c3c(N)ncnc3n2C)cc1 [Example 203]
4.00 to 6.00	C=C(C)C(=O)Nc1ccc(-c2c(-c3ccc4c(c3)CC(NC(C)=O)C4)c3c(N)ncnc3n2C)cc1 (stereo not drawn) [Example 204]
4.00 to 6.00	C=C(C)C(=O)Nc1ccc(-c2c(-c3ccc4[nH]c(C(=O)N(C)C)cc4c3)c3c(N)ncnc3n2C)cc1 [Example 205]
4.00 to 6.00	C=C(C)C(=O)Nc1ccc(-c2c(-c3ccc(N4CCCC4=O)nc3)c3c(N)ncnc3n2C)cc1 [Example 208]
4.00 to 6.00	C=C(C)C(=O)Nc1ccc(-c2c(-c3ccc4c(c3)CN(C)C4=O)c3c(N)ncnc3n2C)cc1 [Example 209]
6.60 to 7.00	C=C(C)C(=O)Nc1ccc(-c2c(-c3cnc4c(c3)OCCN4C)c3c(N)ncnc3n2C)cc1 [Example 214]

pIC50	SMILES
4.00 to 6.00	C=C(C)C(=O)Nc1ccc(-c2c(-c3ccc(Cc4nn[nH]n4)cc3)c3c(N)ncnc3n2C)cc1 [Example 218]
4.00 to 6.00	C=C(C)C(=O)Nc1ccc(-c2c(-c3cnn(CC4CCNCC4)c3)c3c(N)ncnc3n2C)cc1 [Example 221]
4.00 to 6.00	C=C(C)C(=O)Nc1ccc(-c2c(-c3ccc(N(C)C(=O)C4CCCC4)cc3)c3c(N)ncnc3n2C)cc1 [Example 222]
6.00 to 6.60	C=C(C)C(=O)Nc1ccc(-c2c(-c3ccc(Sc4ccccc4)nc3)c3c(N)ncnc3n2C)cc1 [Example 225]
> 7.00	C=C(C)C(=O)Nc1ccc(-c2c(-c3ccc(NC(=O)C4CCC4)cc3)c3c(N)ncnc3n2C)cc1 [Example 226]
4.00 to 6.00	C=C(C)C(=O)Nc1ccc(-c2c(-c3ccc(C(=O)N4CC5(CCC5)C4)cc3)c3c(N)ncnc3n2C)cc1 [Example 231]
6.00 to 6.60	C=C(C)C(=O)Nc1ccc(-c2c(-c3ccc4c(c3)CCN4C(=O)NC)c3c(N)ncnc3n2C)cc1 [Example 232]
4.00 to 6.00	C=C(C)C(=O)Nc1ccc(-c2c(-c3ccc(C(=O)N4CC[C@H](OC)C4)cc3)c3c(N)ncnc3n2C)cc1 [Example 240]
4.00 to 6.00	C=C(C)C(=O)Nc1ccc(-c2c(-c3ccc(C(=O)N4CCC(OC)CC4)cc3)c3c(N)ncnc3n2C)cc1 [Example 242]
4.00 to 6.00	C=C(C)C(=O)Nc1ccc(-c2c(-c3ccc(C(=O)N4CC5(CCO5)C4)cc3)c3c(N)ncnc3n2C)cc1 [Example 243]
4.00 to 6.00	C=C(C)C(=O)Nc1ccc(-c2c(-c3ccc(C(=O)N(C)C4CCOC4)cc3)c3c(N)ncnc3n2C)cc1 (stereo not drawn) [Example 247]
4.00 to 6.00	C=C(C)C(=O)Nc1ccc(-c2c(-c3ccc4c(c3)CNC4=O)c3c(N)ncnc3n2C)cc1 [Example 250]
6.00 to 6.60	C=C(C)C(=O)Nc1ccc(-c2c(-c3ccc(C(=O)N4CCC(F)CC4)cc3)c3c(N)ncnc3n2C)cc1 [Example 251]
6.00 to 6.60	C=C(C)C(=O)Nc1ccc(-c2c(-c3ccc(C(=O)N4CC[C@@H](OC)C4)cc3)c3c(N)ncnc3n2C)cc1 [Example 252]
6.00 to 6.60	C=C(C)C(=O)Nc1ccc(-c2c(-c3ccc(OCC4CCCC4)cc3)c3c(N)ncnc3n2C)cc1 [Example 253]
6.00 to 6.60	C=C(C)C(=O)Nc1ccc(-c2c(-c3ccc(C(=O)N(C)CCO)cc3)c3c(N)ncnc3n2C)cc1 [Example 254]
4.00 to 6.00	C=C(C)C(=O)Nc1ccc(-c2c(-c3ccc(C(=O)N(C)c4ncccn4)cc3)c3c(N)ncnc3n2C)cc1 [Example 256]
4.00 to 6.00	C=C(C)C(=O)Nc1ccc(-c2c(-c3ccc(C(=O)N4CC(F)(F)C4)cc3)c3c(N)ncnc3n2C)cc1 [Example 259]
4.00 to 6.00	C=C(C)C(=O)Nc1ccc(-c2c(-c3ccc(C(=O)N4CC(C5CCOC5)C4)cc3)c3c(N)ncnc3n2C)cc1 (stereo not drawn) [Example 261]
4.00 to 6.00	C=C(C)C(=O)Nc1ccc(-c2c(C3=CCN(C(=O)NC)CC3)c3c(N)ncnc3n2C)cc1 [Example 268]
4.00 to 6.00	C=C(C)C(=O)Nc1ccc(-c2c(-c3ccc(C(=O)N(C)CC4CCCO4)cc3)c3c(N)ncnc3n2C)cc1 (stereo not drawn) [Example 269]
4.00 to 6.00	C=C(C)C(=O)Nc1ccc(-c2c(-c3ccc(C(=O)N4CCC5(COC5)C4)cc3)c3c(N)ncnc3n2C)cc1 [Example 271]
6.00 to 6.60	C=C(C)C(=O)Nc1ccc(-c2c(-c3ccc(C(=O)N(C)C4CC(F)(F)C4)cc3)c3c(N)ncnc3n2C)cc1 [Example 273]

pIC50	SMILES
4.00 to 6.00	C=C(C)C(=O)Nc1ccc(-c2c(-c3ccc(=O)n(C4CC4)c3)c3c(N)ncnc3n2C)cc1 [Example 275]
6.00 to 6.60	C=C(C)C(=O)Nc1ccc(-c2c(-c3ccc(-c4cc(C)no4)cc3)c3c(N)ncnc3n2C)cc1 [Example 277]
6.00 to 6.60	C=C(C)C(=O)Nc1ccc(-c2c(-c3ccc(-c4cocn4)cc3)c3c(N)ncnc3n2C)cc1 [Example 278]
6.60 to 7.00	C=C(C)C(=O)Nc1ccc(-c2c(-c3ccc(-c4nc(C)c(C)o4)cc3)c3c(N)ncnc3n2C)cc1 [Example 279]
6.60 to 7.00	C=C(C)C(=O)Nc1ccc(-c2c(-c3ccc(-c4nnc(NC)s4)cc3)c3c(N)ncnc3n2C)cc1 [Example 280]
4.00 to 6.00	C=C(C)C(=O)Nc1ccc(-c2c(-c3ccc4c(ccn4S(C)(=O)=O)c3)c3c(N)ncnc3n2C)cc1 [Example 281]
4.00 to 6.00	C=C(C)C(=O)Nc1ccc(-c2c(-c3ccc(C(=O)N(C)CCOC)cc3)c3c(N)ncnc3n2C)cc1 [Example 284]
4.00 to 6.00	C=C(C)C(=O)Nc1ccc(-c2c(-c3ccc(C4=NNC(C)O4)nc3)c3c(N)ncnc3n2C)cc1 (stereo not drawn) [Example 285]
4.00 to 6.00	C=C(C)C(=O)Nc1ccc(-c2c(-c3ccc(-c4nnc(C(F)(F)F)o4)cc3)c3c(N)ncnc3n2C)cc1 [Example 286]
4.00 to 6.00	C=C(C)C(=O)Nc1ccc(-c2c(-c3ccc4c(c3)C(C)N(C)C4=O)c3c(N)ncnc3n2C)cc1 (stereo not drawn) [Example 287]
6.00 to 6.60	C=C(C)C(=O)Nc1ccc(-c2c(-c3ccc(S(=N)(=O)N4CCCC4)cc3)c3c(N)ncnc3n2C)cc1 (stereo not drawn) [Example 317]
> 7.00	C=C(C)C(=O)Nc1ccc(-c2c(-c3ccc(C(=O)NC(C)CO)cc3)c3c(N)ncnc3n2C)cc1 (stereo not drawn) [Example 319]
6.00 to 6.60	C=C(C)C(=O)Nc1ccc(-c2c(-c3ccc(C(=O)NCCO)cc3)c3c(N)ncnc3n2C)cc1 [Example 322]
6.60 to 7.00	C=C(C)C(=O)Nc1ccc(-c2c(-c3ccc(C(=O)NCC4CC(O)C4)cc3)c3c(N)ncnc3n2C)cc1 (stereo not drawn) [Example 323]
4.00 to 6.00	C=C(C)C(=O)Nc1ccc(-c2c(-c3ccc(S(=O)(=O)NC4CCCC4)cc3)c3c(N)ncnc3n2C)cc1 [Example 325]
4.00 to 6.00	C=C(C)C(=O)Nc1ccc(-c2c(-c3ccc(S(=O)(=O)NCC(F)(F)F)cc3)c3c(N)ncnc3n2C)cc1 [Example 326]
6.00 to 6.60	C=C(C)C(=O)Nc1ccc(-c2c(-c3ccc(C(=O)NC4CC(O)C4)cc3)c3c(N)ncnc3n2C)cc1 (stereo not drawn) [Example 328]
6.60 to 7.00	C=C(C)C(=O)Nc1ccc(-c2c(-c3ccc(C(=O)NC4CC(CO)C4)cc3)c3c(N)ncnc3n2C)cc1 (stereo not drawn) [Example 330]
6.60 to 7.00	C=C(C)C(=O)Nc1ccc(-c2c(-c3ccc(C(=O)NCCCOC)cc3)c3c(N)ncnc3n2C)cc1 [Example 333]
6.00 to 6.60	C=C(C)C(=O)Nc1ccc(-c2c(-c3ccc(C(=O)NCC4CNC4)cc3)c3c(N)ncnc3n2C)cc1 [Example 334]
6.60 to 7.00	C=C(C)C(=O)Nc1ccc(-c2c(-c3ccc(C(=O)NCCCO)cc3)c3c(N)ncnc3n2C)cc1 [Example 336]
> 7.00	C=C(C)C(=O)Nc1ccc(-c2c(-c3ccc(Oc4cccc(C#N)n4)cc3)c3c(N)ncnc3n2C)cc1 [Example 345]
> 7.00	C=C(C)C(=O)Nc1ccc(-c2c(-c3ccc(C(=O)NCC4(O)CCC4)cc3)c3c(N)ncnc3n2C)cc1 [Example 347]
